Here are results for 1 compound from US20250059153A1, “BICYCLIC QUINONES, PHARMACEUTICAL COMPOSITIONS, AND THERAPEUTIC APPLICATIONS” (priority 2022, published 2025).

In this assay the test system is Trypanosoma cruzi trypomastigote. Nature of the assay: Antiparasitic activity against Trypanosoma cruzi trypomastigote (viability by mobility under optical microscope). In kind it is cell-based. To be noted: LLC-MK2, trypomastigotes from infected LLCMK2 cells, 1×10^7 parasites/mL, 24 h at 37° C. As to the method: Antiparasitic Activity Against Trypanosoma cruzi
To evaluate antiparasitic activity against Trypanosoma cruzi trypomastigote, parasites were obtained from the supernatant of infected LLCMK2 cells. Trypomastigote (1×10^7 parasites/mL) was resuspended in DMEM supplemented with 10% FBS. The parasites were incubated in the presence of a compound at 500, 200, 100, 50, 10, 5, 1, 0.5, and 0.25 μM in 96-well plates for 24 h at 37° C. with 5% CO2. After incubation, the viability of the parasites was determined by examining mobility under an optical microscope. See, e.g., Brener, Rev. Inst. Med. Trop. São Paulo. 1962, 4, 389-96.

Turning to `Cc1cc(=O)c2occoc=2c1=O` [Compound A1, 6-methylbenzo[b][1,4]dioxine-5,8-dione], the EC50 – broadly, the concentration needed to bring the measured effect to its halfway point – turned out to be 2300 ± 300 nM.
